Where two headings read alike, the source gives them in different places.
Experiments:
[1] = biological target: T1, trypsin (Sus scrofa, UniProt P00761); experiment: Single-enzyme assay system, trypsin activity (absorbance 253 nm); type: biochemical, porcine
T1 construct: purchased Sigma-Aldrich; host or cells: porcine pancreas
Procedure: (§1) The activities of enzyme assay systems were determined by measuring the absorbance of reaction mixture solutions or bioluminescence intensity in the solutions of the analyzed pesticide active ingredients or in the control solution.
Trypsin activity was analyzed in the reaction mixture containing 490 μL of the 0.1 M Clark and Lubs buffer pH 7.6, 11 mU of trypsin, 40 μL of 1 mM hydrochloric acid, and 460 μL of the 0.5 mM BAEE solution. The absorbances of the solutions were measured at 253 nm.
(§2) The effects of the active ingredients of pesticide and the solvents on the activity of the enzymes in the single-enzyme assay systems were determined as the relative activity according to the formula A = (At/Ac)∙100%, where Ac and At are the enzyme activity in the control and in the analyte solution, respectively.
(§3) The parameter IC50 was used to estimate the inhibitory effect of the active ingredients of pesticides on the enzyme activity and the bioluminescence intensity of a multi-enzyme assay system. It is the concentration of the active ingredient decreasing the enzyme activity by 50%.

[2] = biological target: T2, lactate dehydrogenase (LDH) (Oryctolagus cuniculus, UniProt P13491); experiment: Single-enzyme assay system, LDH activity (absorbance 340 nm); type: biochemical, rabbit
T2 construct: purchased Sigma-Aldrich; host or cells: rabbit muscle
Procedure: as §1
(§4) The activities of single-enzyme assay systems with Red, ADH, and LDH were determined by changes in the absorbance at 340 nm.
The reaction mixture for the LDH-catalyzed reaction comprised 850 μL of the 0.05 M potassium-phosphate buffer pH 8.0, 9 U of LDH, 40 μL of the 3.25 mM NADH solution, 30 μL of the 69 mM pyruvate solution, and 50 μL of the analyte solution or the solvent solution (control).
as §2, §3

[3] = biological target: T3, alcohol dehydrogenase (ADH) (Saccharomyces cerevisiae, UniProt P00330); experiment: Single-enzyme assay system, ADH activity (absorbance 340 nm); type: biochemical, baker's yeast
T3 construct: purchased Sigma-Aldrich; host or cells: baker’s yeast
T3 sequence (P00330 whole entry): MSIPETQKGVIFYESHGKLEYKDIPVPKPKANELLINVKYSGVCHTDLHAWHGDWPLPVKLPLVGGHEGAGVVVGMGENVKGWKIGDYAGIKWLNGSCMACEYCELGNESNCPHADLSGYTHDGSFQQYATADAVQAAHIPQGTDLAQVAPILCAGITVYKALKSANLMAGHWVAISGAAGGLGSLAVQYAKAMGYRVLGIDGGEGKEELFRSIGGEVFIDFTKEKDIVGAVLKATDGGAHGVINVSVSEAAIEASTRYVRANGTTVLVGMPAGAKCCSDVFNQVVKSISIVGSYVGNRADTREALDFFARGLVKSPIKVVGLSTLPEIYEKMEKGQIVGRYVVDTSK
Procedure: as §1, §4
The activity of the ADH was estimated by using the following reaction mixture: 1500 μL of the potassium-phosphate buffer 0.05 M pH 7.85, 750 mU of ADH, 40 μL of the 2.4 mM NAD^+ solution, and 25 μL of 95% ethanol. Distilled water and acetonitrile were used as control solutions.
as §2, §3

[4] = biological target: NAD(P)H:FMN-oxidoreductase + luciferase (Red + Luc); experiment: Coupled enzyme assay system Red + Luc, luminescence intensity; type: biochemical, Vibrio fischeri; Photobacterium leiognathi; settings: active ingredient alone (AIa)
Procedure: (§5) The activities of the multi-enzyme assay systems were determined from the values of the luminescence intensity in the presence of the control or the analyte solutions.
To analyze the effect of pesticides on the luminescence intensity of the Red + Luc coupled enzyme assay system, we used the following reaction mixture: 290 μL of the 0.05 M potassium-phosphate buffer pH 6.8; 5 μL of the Red + Luc mixture, preliminarily diluted in 5 mL of the buffer solution; 50 μL of the 0.0025% tetradecanal solution; 50 μL of the 0.5 mM FMN solution; 100 μL of the 0.4 mM NADH solution; and 10–200 μL of the analyte solution or the solvent solution used as a control. Ratio of Red to Luc in the reaction mixture was 1.2:1; and their concentrations were about 15 and 13 nM, respectively.
(§6) The effect of the pesticide active ingredients and solvents on the multi-enzyme reactions was estimated from the residual luminescence intensity calculated according to the formula I = (It/Ic)∙100%, where Ic and It are the average values of luminescence intensity in the presence of the control or analyte solution, respectively.
as §3

[5] = biological target: alcohol dehydrogenase + NAD(P)H:FMN-oxidoreductase + luciferase (ADH + Red + Luc); experiment: Three-enzyme assay system ADH + Red + Luc, luminescence intensity; type: biochemical, baker's yeast; Vibrio fischeri; Photobacterium leiognathi; settings: active ingredient alone (AIa)
Procedure: as §5
An analysis of the activity of the ADH + Red + Luc three-enzyme assay system was performed using the reaction mixture containing 350 μL of the 0.05 M potassium-phosphate buffer pH 6.9; 5 μL of 0.5 mg/mL ADH; 5 μL of the Red + Luc solution, preliminarily diluted in 5 mL of the buffer solution; 50 μL of the 0.0025% tetradecanal solution; 100 μL of the 0.4 mM NAD^+ solution; 10 μL of the 0.5 mM FMN solution; 5 μL of 95% ethanol; and 10–100 μL of the solvent (control) or the analyte solution. The proportions of ADH, Red, and Luc in the reaction mixture were 10:1.2:1, and their concentrations were about 120, 14, and 12 nM, respectively.
as §6, §3

[6] = biological target: lactate dehydrogenase + NAD(P)H:FMN-oxidoreductase + luciferase (LDH + Red + Luc); experiment: Three-enzyme assay system LDH + Red + Luc, luminescence intensity; type: biochemical, rabbit; Vibrio fischeri; Photobacterium leiognathi; settings: active ingredient alone (AIa)
Procedure: as §5
The reaction mixture for analyzing the luminescence intensity of the LDH + Red + Luc three-enzyme assay system consisted of 5 μL of 0.5 mg/mL LDH; 300 μL of the 0.05 M potassium-phosphate buffer pH 7.1; 10 μL of the 15 mM lactate solution; 50 μL of the 0.0025% tetradecanal solution; 10 μL of the Red + Luc solution, preliminarily diluted in 5 mL of the buffer solution; 10 μL of the 0.5 mM FMN solution; 100 μL of the 0.5 mM NAD^+ solution; and 10–50 μL of the analyte solution or the solvent solution (control). The proportions of LDH, Red, and Luc in the reaction mixture were 1.4:1.2:1, and their concentrations were about 36, 31, and 26 nM, respectively.
as §6, §3

[7] = biological target: T4, butyrylcholinesterase (BChE) (Equus caballus, UniProt P81908); experiment: Single-enzyme assay system, BChE activity (Ellman's method, 412 nm); type: biochemical, equine
T4 construct: purchased Sigma-Aldrich; host or cells: equine serum
T4 sequence (P81908 whole entry): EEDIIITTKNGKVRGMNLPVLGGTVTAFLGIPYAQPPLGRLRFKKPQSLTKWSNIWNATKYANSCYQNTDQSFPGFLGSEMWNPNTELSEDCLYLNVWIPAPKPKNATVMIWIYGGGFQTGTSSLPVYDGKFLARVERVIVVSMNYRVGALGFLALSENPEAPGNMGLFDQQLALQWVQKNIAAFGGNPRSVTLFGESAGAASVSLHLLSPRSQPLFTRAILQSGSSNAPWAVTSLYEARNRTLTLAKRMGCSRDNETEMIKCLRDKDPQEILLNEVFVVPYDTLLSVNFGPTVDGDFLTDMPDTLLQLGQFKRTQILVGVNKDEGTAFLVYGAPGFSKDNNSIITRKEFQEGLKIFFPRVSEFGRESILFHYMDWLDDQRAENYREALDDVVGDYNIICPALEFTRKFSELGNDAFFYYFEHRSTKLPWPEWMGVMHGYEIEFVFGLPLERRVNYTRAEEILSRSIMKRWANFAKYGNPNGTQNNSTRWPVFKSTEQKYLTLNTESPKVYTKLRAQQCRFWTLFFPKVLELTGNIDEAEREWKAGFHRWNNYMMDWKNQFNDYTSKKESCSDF
Procedure: as §1
To analyze BChE activity Ellman’s method was used. The absorbance of the solutions was measured at the 412 nm. We used the following reaction mixture: 800–850 μL of the 0.05 M potassium-phosphate buffer pH 8.0, 70 mU of BChE, 60 μL of 0.2 mM 5,5′-dithiobis (2-nitrobenzoic acid), 60 μL of 0.2 mM S-BCh-I, and 50–100 μL of the analyte solution or the solvent solution used as control.
as §2, §3

[8] = maximum residual levels of the active ingredient, Russian Federation; cited from earlier work
[9] = biological target: alkaline phosphatase (ALP) (Bos taurus, UniProt P19111); experiment: Single-enzyme assay system, ALP activity (absorbance 405 nm); type: biochemical, bovine; settings: 13.5 mg/L of fenvalerate (AIa)
Sequence of alkaline phosphatase (ALP) (P19111 20-506): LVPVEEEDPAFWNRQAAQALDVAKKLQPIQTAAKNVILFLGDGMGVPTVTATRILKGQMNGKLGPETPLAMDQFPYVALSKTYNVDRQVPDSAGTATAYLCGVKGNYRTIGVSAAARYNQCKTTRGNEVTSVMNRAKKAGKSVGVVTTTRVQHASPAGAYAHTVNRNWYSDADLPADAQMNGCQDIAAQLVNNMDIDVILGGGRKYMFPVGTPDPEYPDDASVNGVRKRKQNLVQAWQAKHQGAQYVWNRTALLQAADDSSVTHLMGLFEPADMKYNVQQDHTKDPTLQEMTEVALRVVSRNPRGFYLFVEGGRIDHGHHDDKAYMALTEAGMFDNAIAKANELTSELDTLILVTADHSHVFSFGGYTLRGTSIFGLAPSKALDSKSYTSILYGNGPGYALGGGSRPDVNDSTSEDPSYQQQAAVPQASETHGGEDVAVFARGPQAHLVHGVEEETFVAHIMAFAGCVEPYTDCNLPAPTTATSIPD
Procedure: as §1
The activity of the ALP was analyzed in the following reaction mixture: 990 μL of the glycine NaOH buffer pH 9.6 containing 0.5 mM MgCl2, 1.2 mU of the ALP solution, 8 μL of the 33 mM […] solution, and 30–50 μL of the analyte solution. The absorbance of the solutions was measured at 405 nm.
as §2, §3

[10] = biological target: NAD(P)H:FMN-oxidoreductase (Red); experiment: Single-enzyme assay system, Red activity (absorbance 340 nm); type: biochemical, Vibrio fischeri; settings: active ingredient alone (AIa)
Procedure: as §1, §4
The reaction mixture for the Red-catalyzed reaction consisted of 750 μL of the 0.05 M potassium-phosphate buffer pH 7.25, 6 mU of Red, 100 μL of the 0.4 mM NADH solution, 10 μL of the 0.5 mM FMN solution, and 5–100 μL of the analyte solution or the solvent (control).
as §2, §3

[11] = test system: Photobacterium phosphoreum; experiment: Bioluminescence of luminous bacterium P. phosphoreum; type: cell-based
Procedure: Bacterium P. phosphoreum 1889 was provided by the museum at the IBP SB RAS [68]. P. phosphoreum cells were grown for 24 h on solid medium for marine bacteria. The cells were suspended in the sodium-phosphate buffer pH 7.4.
The effects of active ingredients of pesticides on the luminous bacterium were determined by changes in the bacterial luminescence intensity in the presence of the analyte relative to the control value. The solvent was used as a control solution. The reaction mixture for analyzing the luminescence intensity of luminous bacterium in the presence of control solution contained 450 μL of bacterial suspension and 5 μL of ethanol or 50 μL of distilled water, used as solvents for active ingredients of pesticides. A cuvette with the reaction mixture was placed into a luminometer, and luminescence intensity (Ic) was measured after 1 min. Then, another aliquot of bacterial suspension and 5 or 50 μL of a pesticide active ingredient solution were placed into a luminometer cuvette, and luminescence intensity (It) was measured after 1 min. The residual luminescence intensity was determined according to the formula I = (It/Ic) ∙ 100%.
The parameter EC50 was used to estimate the inhibitory effect of the active ingredients of pesticides on the bioluminescence of P. phosphoreum. […]

[12] = active ingredient alone (AIa), read-out: IC50, LDH (converted)
[13] = active ingredient alone (AIa), read-out: IC50, ADH (converted)
[14] = active ingredient alone (AIa), read-out: IC50, BChE (converted)

T1 sequence (P00761 9-231): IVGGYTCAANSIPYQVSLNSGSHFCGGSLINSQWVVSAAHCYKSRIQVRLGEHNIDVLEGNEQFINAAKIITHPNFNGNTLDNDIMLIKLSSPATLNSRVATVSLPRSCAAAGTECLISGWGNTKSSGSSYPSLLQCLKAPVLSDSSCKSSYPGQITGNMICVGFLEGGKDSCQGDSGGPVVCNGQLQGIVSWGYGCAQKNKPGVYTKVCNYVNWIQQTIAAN

Compound	IC50 [2, 12] [µM]	IC50 [3, 13] [µM]	IC50, Red + Luc [4]	IC50, ADH + Red + Luc [5]	IC50, LDH + Red + Luc [6]	IC50 [7, 14] [µM]	MRL RUS [8] [mg/kg]	also measured
CC1(C)C(C=C(Cl)Cl)C1C(=O)OC(C#N)c1cccc(Oc2ccccc2)c1 (stereo not shown) [Cypermethrin, cypermethrin]	60.1	0.48	1.8 µg/mL	0.2 µg/mL	6.5 µg/mL			IC50, Trypsin ([1]; active ingredient alone (AIa)): No inhibitory effects
CC1(C)[C@H](C(=O)O[C@H](C#N)c2cccc(Oc3ccccc3)c2)[C@@H]1C=C(Br)Br [Deltamethrin, deltamethrin]	59.4	20.6	3.7 µg/mL	1.0 µg/mL	7.7 µg/mL	198	0.01 to 0.3	
CCOP(=S)(OCC)Oc1cc(C)nc(C(C)C)n1 [Diazinon, diazinon]			2234 µg/mL	11 µg/mL	3351 µg/mL		0.1 to 0.5	IC50, LDH ([2]; active ingredient alone (AIa)): No inhibitory effects; IC50 [3]: 47.6 µM
CC(C)C(C(=O)OC(C#N)c1cccc(Oc2ccccc2)c1)c1ccc(Cl)cc1 (stereo not shown) [Fenvalerate, fenvalerate]	7.14		4.8 µg/mL	1.6 µg/mL	31.7 µg/mL	286		increase in trypsin activity ([1]; 10 mg/L of fenvalerate (AIa)): 28%; increase in ALP activity [9]: 26%; IC50, ADH ([3]; active ingredient alone (AIa)): No inhibitory effects
O=C(O)CNCP(=O)(O)O [Glyphosate, glyphosate]		30400	288 µg/mL	3200 µg/mL	935 µg/mL	207		IC50 ([1]; active ingredient alone (AIa), read-out: IC50, Trypsin (converted)): 5690 µM; IC50 ([1]; glyphosate as AIa, read-out: IC50, trypsin (Figure 2 legend) (converted)): 5680 µM; IC50, LDH ([2]; active ingredient alone (AIa)): no 50% inhibition; IC50, Red [10]: no 50% inhibition; concentration giving 50% inhibition of Red + Luc activity [4]: 0.3 g/L
O=[N+]([O-])NC1=NCCN1Cc1ccc(Cl)nc1 [Imidacloprid, imidacloprid]			– (No inhibitory effect of the AIa and AIf was detected in the tested concentration range.)	– (No inhibitory effect of the AIa and AIf was detected in the tested concentration range.)	– (No inhibitory effect of the AIa and AIf was detected in the tested concentration range.)		0.1 to 1.0	EC50, P. phosphoreum bioluminescence ([11]; active ingredient alone (AIa), luminescence after 1 min): did not produce any detectable effect; EC20 (20% quenching of bacterial bioluminescence) ([11]; imidacloprid as AIa and as AIf): 50 µg/mL
CCOC(=O)CC(SP(=S)(OC)OC)C(=O)OCC (stereo not shown) [Malathion, malathion]							0.05 to 1.0	IC50 [7]: 1820 µM; IC50 [2]: 1060 µM
